Measured values from patent US5292742A, “Angiotensin II receptor blocking 2,3,6 substituted quinazolinones” (American Cyanamid Company, priority 1993, dated 1994).
Several values for one entry are separate records, joined by “and”; a condition that tells them apart may be missing. Equal entries are not always repeated.

Test system: angiotensin II (AII) vasopressor response
Assay: AII challenge: inhibition of angiotensin II vasopressor response in conscious spontaneously hypertensive rats
Format: in vivo, rat (Okamoto-Aoki SHR)
Details: 3 mg/kg IV; for % Inhibition (angiotensin blockage) of AII vasopressor response / Average Change (increase in systolic blood pressure after AII): SHR n = 2; for Change (increase in systolic blood pressure after AII), individual rat / Response After AII (systolic blood pressure), individual rat / Control Before AII (systolic blood pressure), individual rat: individual SHR
From the text: By administering a compound of this invention to a rat, and then challenging with angiotensin II, a blockage of the vasopressor response is realized.
Conscious Male Okamoto-Aoki SHR, 16-20 weeks old, weighing approximately 330 g are purchased from Charles River Labs (Wilmington, Mass.). Conscious rats are restrained in a supine position with elastic tape. The area at the base of the tail is locally anesthetized by subcutaneous infiltration with 2% procaine. The ventral caudal artery and vein are isolated, and a cannula made of polyethylene (PE) 10-20 tubing (fused together by heat) is passed into the lower abdominal aorta and vena cava, respectively. The cannula is secured, heparinized (1,000 I.U./ml), sealed and the wound is closed. The animals are placed in plastio restraininq cages in an upright position. The cannula is attached to a Statham P23Db pressure transducer, and pulsatile blood pressure is recorded to 10-15 minutes with a Gould Brush recorder. (Chan et al., (Drug Development Res., 18:75-94, 1989).
Angiotensin II (human sequence, Sigma Chem. Co., St. Louis, Mo.) of 0.05 and 0.1 mcg/kg i.v. is injected into all rats (predosing response). Then a test compound, vehicle or a known angiotensin II antagonist is administered i.v., i.p. or orally to each set of rats. The two doses of angiotensin II are given to each rat again at 30, 60, 90, 120, 180, 240 and 300 minutes post dosing the compound or vehicle. The vasopressor response of angiotensin II is measured for the increase in systolic blood pressure in mmHg. The percentage of antagonism or blockade of the vasopressor response of angiotensin II by a compound is calculated using the vasopressor response (increase in systolic blood pressure) of angiotensin II of each rat predosing the compound as 100%. A compound is considered active if at 30 mg/kg i.v. it antagonized at least 50% of the response.

[1] = AII 0.05 mcg/kg IV, 30 min post dose
[2] = AII 0.05 mcg/kg IV, 60 min post dose
[3] = AII 0.05 mcg/kg IV, 90 min post dose
[4] = AII 0.05 mcg/kg IV, 120 min post dose
[5] = AII 0.05 mcg/kg IV, 180 min post dose
[6] = AII 0.05 mcg/kg IV, 240 min post dose
[7] = AII 0.05 mcg/kg IV, 300 min post dose
[8] = AII 0.1 mcg/kg IV, 30 min post dose
[9] = AII 0.1 mcg/kg IV, 60 min post dose
[10] = AII 0.1 mcg/kg IV, 90 min post dose
[11] = AII 0.1 mcg/kg IV, 120 min post dose
[12] = AII 0.1 mcg/kg IV, 180 min post dose
[13] = AII 0.1 mcg/kg IV, 240 min post dose
[14] = AII 0.1 mcg/kg IV, 300 min post dose

Compound: CCCCc1nc2ccc(C3=NN4CCCC4C3)cc2c(=O)n1Cc1ccc(-c2ccccc2-c2nnn[nH]2)cc1 (stereo not shown) [Example 10, 2-Butyl-6-(3a,4,5,6-tetrahydro-3H-pyrrolo[1,2-b]-pyrazol-2-yl)-3-[[2'-(1H-tetrazol-5-yl)[1,1'-biphenyl]-4-yl]methyl]-4(3H)-quinazolinone]
- % Inhibition (angiotensin blockage) of AII vasopressor response [1]: 61%
- Average Change (increase in systolic blood pressure after AII) [1]: 13.5 mmHg
- Change (increase in systolic blood pressure after AII), individual rat [1]: 12 mmHg and 15 mmHg
- % Inhibition (angiotensin blockage) of AII vasopressor response [2]: 7%
- Average Change (increase in systolic blood pressure after AII) [2]: 32.5 mmHg
- Change (increase in systolic blood pressure after AII), individual rat [2]: 30 mmHg and 35 mmHg
- % Inhibition (angiotensin blockage) of AII vasopressor response [3]: 43%
- Average Change (increase in systolic blood pressure after AII) [3]: 20 mmHg
- Change (increase in systolic blood pressure after AII), individual rat [3]: 30 mmHg and 10 mmHg
- % Inhibition (angiotensin blockage) of AII vasopressor response [4]: 43%
- Average Change (increase in systolic blood pressure after AII) [4]: 20 mmHg
- Change (increase in systolic blood pressure after AII), individual rat [4]: 25 mmHg and 15 mmHg
- % Inhibition (angiotensin blockage) of AII vasopressor response [5]: 36%
- Average Change (increase in systolic blood pressure after AII) [5]: 22.5 mmHg
- Change (increase in systolic blood pressure after AII), individual rat [5]: 25 mmHg and 20 mmHg
- % Inhibition (angiotensin blockage) of AII vasopressor response [6]: 50%
- Average Change (increase in systolic blood pressure after AII) [6]: 17.5 mmHg
- Change (increase in systolic blood pressure after AII), individual rat [6]: 20 mmHg and 15 mmHg
- % Inhibition (angiotensin blockage) of AII vasopressor response [7]: 7%
- Average Change (increase in systolic blood pressure after AII) [7]: 32.5 mmHg
- Change (increase in systolic blood pressure after AII), individual rat [7]: 35 mmHg and 30 mmHg
- % Inhibition (angiotensin blockage) of AII vasopressor response [8]: 55%
- Average Change (increase in systolic blood pressure after AII) [8]: 22.5 mmHg
- Change (increase in systolic blood pressure after AII), individual rat [8]: 20 mmHg and 25 mmHg
- % Inhibition (angiotensin blockage) of AII vasopressor response [9]: 55%
- Average Change (increase in systolic blood pressure after AII) [9]: 22.5 mmHg
- Change (increase in systolic blood pressure after AII), individual rat [9]: 25 mmHg and 20 mmHg
- % Inhibition (angiotensin blockage) of AII vasopressor response [10]: 50%
- Average Change (increase in systolic blood pressure after AII) [10]: 25 mmHg
- Change (increase in systolic blood pressure after AII), individual rat [10]: 25 mmHg
- % Inhibition (angiotensin blockage) of AII vasopressor response [11]: 50%
- Average Change (increase in systolic blood pressure after AII) [11]: 25 mmHg
- Change (increase in systolic blood pressure after AII), individual rat [11]: 30 mmHg and 20 mmHg
- % Inhibition (angiotensin blockage) of AII vasopressor response [12]: 45%
- Average Change (increase in systolic blood pressure after AII) [12]: 27.5 mmHg
- Change (increase in systolic blood pressure after AII), individual rat [12]: 30 mmHg and 25 mmHg
- % Inhibition (angiotensin blockage) of AII vasopressor response [13]: 50%
- Average Change (increase in systolic blood pressure after AII) [13]: 25 mmHg
- Change (increase in systolic blood pressure after AII), individual rat [13]: 25 mmHg
- % Inhibition (angiotensin blockage) of AII vasopressor response [14]: 30%
- Average Change (increase in systolic blood pressure after AII) [14]: 35 mmHg
- Change (increase in systolic blood pressure after AII), individual rat [14]: 45 mmHg and 25 mmHg
- Response After AII (systolic blood pressure), individual rat (after AII 0.05 mcg/kg IV, 30 min post dose): 242 mmHg and 255 mmHg
- Response After AII (systolic blood pressure), individual rat (after AII 0.05 mcg/kg IV, 60 min post dose): 255 mmHg and 270 mmHg
- Response After AII (systolic blood pressure), individual rat (after AII 0.05 mcg/kg IV, 90 min post dose): 255 mmHg and 250 mmHg
- Response After AII (systolic blood pressure), individual rat (after AII 0.05 mcg/kg IV, 120 min post dose): 250 mmHg and 230 mmHg
- Response After AII (systolic blood pressure), individual rat (after AII 0.05 mcg/kg IV, 180 min post dose): 235 mmHg
- Response After AII (systolic blood pressure), individual rat (after AII 0.05 mcg/kg IV, 240 min post dose): 230 mmHg and 235 mmHg
- Response After AII (systolic blood pressure), individual rat (after AII 0.05 mcg/kg IV, 300 min post dose): 250 mmHg and 245 mmHg
- Response After AII (systolic blood pressure), individual rat (after AII 0.1 mcg/kg IV, 30 min post dose): 250 mmHg and 260 mmHg
- Response After AII (systolic blood pressure), individual rat (after AII 0.1 mcg/kg IV, 60 min post dose): 255 mmHg and 260 mmHg
- Response After AII (systolic blood pressure), individual rat (after AII 0.1 mcg/kg IV, 90 min post dose): 265 mmHg and 260 mmHg
- Response After AII (systolic blood pressure), individual rat (after AII 0.1 mcg/kg IV, 120 min post dose): 265 mmHg and 240 mmHg
- Response After AII (systolic blood pressure), individual rat (after AII 0.1 mcg/kg IV, 180 min post dose): 245 mmHg and 250 mmHg
- Response After AII (systolic blood pressure), individual rat (after AII 0.1 mcg/kg IV, 240 min post dose): 250 mmHg and 240 mmHg
- Response After AII (systolic blood pressure), individual rat (after AII 0.1 mcg/kg IV, 300 min post dose): 255 mmHg and 250 mmHg
- Control Before AII (systolic blood pressure), individual rat (before AII 0.05 mcg/kg IV, 30 min post dose): 230 mmHg and 240 mmHg
- Control Before AII (systolic blood pressure), individual rat (before AII 0.05 mcg/kg IV, 60 min post dose): 225 mmHg and 235 mmHg
- Control Before AII (systolic blood pressure), individual rat (before AII 0.05 mcg/kg IV, 90 min post dose): 225 mmHg and 240 mmHg
- Control Before AII (systolic blood pressure), individual rat (before AII 0.05 mcg/kg IV, 120 min post dose): 225 mmHg and 215 mmHg
- Control Before AII (systolic blood pressure), individual rat (before AII 0.05 mcg/kg IV, 180 min post dose): 210 mmHg and 215 mmHg
- Control Before AII (systolic blood pressure), individual rat (before AII 0.05 mcg/kg IV, 240 min post dose): 210 mmHg and 220 mmHg
- Control Before AII (systolic blood pressure), individual rat (before AII 0.05 mcg/kg IV, 300 min post dose): 215 mmHg
- Control Before AII (systolic blood pressure), individual rat (before AII 0.1 mcg/kg IV, 30 min post dose): 230 mmHg and 235 mmHg
- Control Before AII (systolic blood pressure), individual rat (before AII 0.1 mcg/kg IV, 60 min post dose): 230 mmHg and 240 mmHg
- Control Before AII (systolic blood pressure), individual rat (before AII 0.1 mcg/kg IV, 90 min post dose): 240 mmHg and 235 mmHg
- Control Before AII (systolic blood pressure), individual rat (before AII 0.1 mcg/kg IV, 120 min post dose): 235 mmHg and 220 mmHg
- Control Before AII (systolic blood pressure), individual rat (before AII 0.1 mcg/kg IV, 180 min post dose): 215 mmHg and 225 mmHg
- Control Before AII (systolic blood pressure), individual rat (before AII 0.1 mcg/kg IV, 240 min post dose): 225 mmHg and 215 mmHg
- Control Before AII (systolic blood pressure), individual rat (before AII 0.1 mcg/kg IV, 300 min post dose): 210 mmHg and 225 mmHg
